# Columns and labels:
# Type in all cases: functional
# Settings in all cases: read-out: Survival
# [1] = Cytotoxicity against human KBV Cells assessed as cell survival rate at 10 uM incubated for 72 hrs by MTT assay
# [2] = Reversal of multidrug resistance in human KBV Cells assessed as increase in PTX-induced cytotoxicity by measuring cell survival rate at 10 uM incubated for 72 hrs in presence of paclitaxel by MTT assay relative to control
# [3] = Reversal of multidrug resistance in human KBV Cells assessed as increase in PTX-induced cytotoxicity by measuring cell survival rate at 5 uM incubated for 72 hrs in presence of paclitaxel by MTT assay relative to control
SMILES,viability at 10 µM [1] [%],viability at 10 µM [2] [%],viability at 5 µM [3] [%]
CC(C)(C)OC(=O)N1CCC[C@H]1C(=O)N[C@H]1CC[C@]2(C)[C@H]3C[C@@H](O)[C@@H]4[C@@H]([C@]5(C)CC[C@H](C(C)(C)O)O5)CC[C@@]4(C)[C@]3(C)CC[C@H]2C1(C)C,155,32,41
CC(C)(C)OC(=O)C[C@H](NC(=O)OC(C)(C)C)C(=O)N[C@H]1CC[C@]2(C)[C@H]3C[C@@H](O)[C@@H]4[C@@H]([C@]5(C)CC[C@H](C(C)(C)O)O5)CC[C@@]4(C)[C@]3(C)CC[C@H]2C1(C)C,152,28,41
CC(C)(C)OC(=O)NCCCC[C@H](NC(=O)OC(C)(C)C)C(=O)N[C@H]1CC[C@]2(C)[C@H]3C[C@@H](O)[C@@H]4[C@@H]([C@]5(C)CC[C@@H](C(C)(C)O)O5)CC[C@@]4(C)[C@]3(C)CC[C@H]2C1(C)C,99,29,36
CC(C)[C@H](NC(=O)OC(C)(C)C)C(=O)N[C@H]1CC[C@]2(C)[C@H]3C[C@@H](O)[C@@H]4[C@@H]([C@]5(C)CC[C@H](C(C)(C)O)O5)CC[C@@]4(C)[C@]3(C)CC[C@H]2C1(C)C,114,21,36
CC(C)(C)OC(=O)N[C@@H](Cc1ccc(OC(C)(C)C)cc1)C(=O)N[C@H]1CC[C@]2(C)[C@H]3C[C@@H](O)[C@@H]4[C@@H]([C@]5(C)CC[C@H](C(C)(C)O)O5)CC[C@@]4(C)[C@]3(C)CC[C@H]2C1(C)C,125,38,42
CC(C)[C@H](NC(=O)OC(C)(C)C)C(=O)N[C@H]1CC[C@]2(C)[C@H]3C[C@@H](O)[C@@H]4[C@@H]([C@]5(C)CC[C@@H](C(C)(C)O)O5)CC[C@@]4(C)[C@]3(C)CC[C@H]2C1(C)C,89,31,48
CC(C)(O)[C@@H]1CC[C@@](C)([C@H]2CC[C@]3(C)[C@@H]2[C@H](O)C[C@@H]2[C@@]4(C)CC[C@H](N)C(C)(C)[C@@H]4CC[C@]23C)O1,98,55,94
CC(C)(O)[C@H]1CC[C@@](C)([C@H]2CC[C@]3(C)[C@@H]2[C@H](O)C[C@@H]2[C@@]4(C)CC[C@H](N)C(C)(C)[C@@H]4CC[C@]23C)O1,98,40,44
CC(C)[C@H](N)C(=O)N[C@H]1CC[C@]2(C)[C@H]3C[C@@H](O)[C@@H]4[C@@H]([C@]5(C)CC[C@@H](C(C)(C)O)O5)CC[C@@]4(C)[C@]3(C)CC[C@H]2C1(C)C,79,52,81
CC(C)(O)[C@H]1CC[C@@](C)([C@H]2CC[C@]3(C)[C@@H]2[C@H](O)C[C@@H]2[C@@]4(C)CC[C@H](OC(=O)[C@@H]5CCCN5)C(C)(C)[C@@H]4CC[C@]23C)O1,108,61,76
CC(C)(C)OC(=O)NCCCC[C@H](NC(=O)OC(C)(C)C)C(=O)N[C@H]1CC[C@]2(C)[C@H]3C[C@@H](O)[C@@H]4[C@@H]([C@]5(C)CC[C@H](C(C)(C)O)O5)CC[C@@]4(C)[C@]3(C)CC[C@H]2C1(C)C,119,33,47
CC(C)(C)OC(=O)N1CCC[C@H]1C(=O)O[C@H]1CC[C@]2(C)[C@H]3C[C@@H](O)[C@@H]4[C@@H]([C@]5(C)CC[C@H](C(C)(C)O)O5)CC[C@@]4(C)[C@]3(C)CC[C@H]2C1(C)C,102,70,111
CC(C)(O)[C@H]1CC[C@@](C)(C2CC[C@]3(C)[C@@H]2[C@H](O)C[C@@H]2[C@@]4(C)CC[C@H](O)C(C)(C)[C@@H]4CC[C@]23C)O1 (stereo partly drawn),94,64,
